Several values for one entry are separate records, joined by “and”; a condition that tells them apart may be missing. Identical values can stand only once. Like-named read-outs stand apart in the source and are kept apart here.
Target: SARS-CoV-2 NSP3 macrodomain (Mac1) (Severe acute respiratory syndrome coronavirus 2, UniProt P0DTD1)
Type: binding
Settings: for Total number of conformations: ligand conformations modeled in the crystal structure; for 2*(1-BDC) (%): occupancy estimate from PanDDA
[1] = PanDDA background density correction factor
[2] = TRUE = crystal structure with ligand obtained
[3] = crystal soak 5 mM, P43 crystal form
[4] = crystal soak 5 mM, DMSO background map
[5] = refined crystallographic occupancy
[6] = TRUE = ligand-bound crystal structure obtained (PDB code given)
[7] = crystal soak concentration 20 mM, DMSO background map
[8] = crystal soak concentration 20 mM, DMSO background map, event 1
[9] = crystal soak concentration 20 mM, P43 crystals
[10] = site of Mac1 occupied in the X-ray crystal structure (Adenosine or Distal)
[11] = soak concentration 10 mM, DMSO background map
[12] = soak concentration 10 mM, P43 crystals
[13] = crystal soak 10 mM, P43 crystal form
[14] = crystal soak 10 mM, DMSO background map
[15] = ligand-bound crystal structure obtained (TRUE)
[16] = site occupied in X-ray crystal structure
[17] = site of ligand in X-ray crystal structure
[18] = DMSO background map, event 1, soak concentration 10 mM
[19] = DMSO background map, soak concentration 10 mM
[20] = crystal soak, P43 crystals, soak concentration 10 mM
[21] = crystal soak, P43 crystals, soak concentration 10 mM for the hits shown
[22] = crystal soak concentration 10 mM, DMSO background map
[23] = crystal soak concentration 10 mM, P43 crystals

Structure (SMILES): CCC1(O)CCN(c2ncnc3[nH]ccc23)C1 (stereo not shown) [AVI-612]
- Occupancy difference (refined_occupancy - 2*(1-BDC)): 0
- 1-BDC [1]: 0.17
- X-ray crystal structure [2]: TRUE
- PanDDA run, overall: Hit [3]: TRUE
- PanDDA run, DMSO background map: 1-BDC [4]: 0.17
- PanDDA run, DMSO background map: Hit [4]: TRUE
- Total number of conformations: 1
- 2*(1-BDC) (%): 34%
- Refined ligand occupancy (%) [5]: 34%
- Binding site (site of Mac1 occupied in the X-ray crystal structure): Adenosine

Structure (SMILES): CC1CCN(C(=O)c2ccc3c(c2)nc(CO)n3C)CC1C(=O)O (stereo not shown) [AVI-348]
- Occupancy difference (refined_occupancy - 2*(1-BDC)): 0
- 1-BDC [1]: 0.25
- X-ray crystal structure [6]: TRUE
- Hit (PanDDA run, DMSO background map) [7]: TRUE
- 1-BDC (PanDDA run, DMSO background map) [8]: 0.34
- Hit (PanDDA run, overall) [9]: TRUE
- Modeling comment (PanDDA run, overall) [9]: Duplicate, not modeled
- Total number of conformations: 1
- 2*(1-BDC) (%): 50%
- Refined ligand occupancy (%) [5]: 50%
- Binding site [10]: Adenosine
- PanDDA run, DMSO background map: 1-BDC [11]: 0.25
- PanDDA run, DMSO background map: Hit [11]: TRUE
- PanDDA run, DMSO background map: Modeled [11]: TRUE
- PanDDA run, overall: Hit [12]: TRUE
- PanDDA run, overall: Modeled [12]: TRUE

Structure (SMILES): OC(c1ccccc1)C1CCCN1c1ncnc2[nH]ccc12 (stereo not shown) [AVI-3652]
- Occupancy difference (refined_occupancy - 2*(1-BDC)): 0
- 1-BDC [1]: 0.22
- PanDDA run, overall: Hit [13]: TRUE
- PanDDA run, overall: Modeled [13]: TRUE
- PanDDA run, DMSO background map: 1-BDC [14]: 0.22
- PanDDA run, DMSO background map: Hit [14]: TRUE
- Total number of conformations: 1
- X-ray crystal structure [15]: TRUE
- 2*(1-BDC) (%): 44%
- Refined ligand occupancy (%) [5]: 44%
- Binding site [16]: Adenosine

Structure (SMILES): OCC(Cc1nccs1)Nc1ncnc2[nH]ccc12 (stereo not shown) [AVI-3673]
- Occupancy difference (refined_occupancy - 2*(1-BDC)): 0
- 1-BDC [1]: 0.19
- X-ray crystal structure [2]: TRUE
- PanDDA run, overall: Hit [13]: TRUE
- PanDDA run, overall: Modeled [13]: TRUE
- PanDDA run, DMSO background map: 1-BDC [14]: 0.19
- PanDDA run, DMSO background map: Hit [14]: TRUE
- Total number of conformations: 1
- 2*(1-BDC) (%): 38%
- Refined ligand occupancy (%) [5]: 38%
- Binding site [17]: Adenosine

Structure (SMILES): O[C@@H]1COC[C@H]1Nc1ncnc2[nH]ccc12 [AVI-1443]
- PanDDA run, overall: Modeling comment (crystal soak 5 mM): Weak density, not modeled
- PanDDA run, overall: Hit [3]: TRUE
- PanDDA run, DMSO background map: 1-BDC [4]: 0.05 and 0.04
- PanDDA run, DMSO background map: Hit [4]: TRUE

Structure (SMILES): O=C(O)C(F)(F)F.OC[C@@H](CCc1ccccc1)Nc1ncnc2[nH]ccc12 [AVI-3654]
- PanDDA run, overall: Hit [13]: TRUE
- PanDDA run, overall: Modeling comment [13]: Weak density for phenyl, not modeled
- PanDDA run, DMSO background map: 1-BDC [14]: 0.14
- PanDDA run, DMSO background map: Hit [14]: TRUE
- PanDDA run, TFA/DMSO background map: 1-BDC (crystal soak 10 mM): 0.07
- PanDDA run, TFA/DMSO background map: Hit (crystal soak 10 mM): TRUE

Structure (SMILES): OCC(Cc1c[nH]c2ccccc12)Nc1ncnc2[nH]ccc12 (stereo not shown) [AVI-3650]
- Occupancy difference (refined_occupancy - 2*(1-BDC)): 0
- 1-BDC [1]: 0.15
- X-ray crystal structure [2]: TRUE
- PanDDA run, overall: Hit [13]: TRUE
- PanDDA run, overall: Modeled [13]: TRUE
- PanDDA run, DMSO background map: 1-BDC [14]: 0.15
- PanDDA run, DMSO background map: Hit [14]: TRUE
- Total number of conformations: 2
- 2*(1-BDC) (%): 30%
- Refined ligand occupancy (%) [5]: 30%
- Binding site [17]: Adenosine

Structure (SMILES): O=C(O)C1CCCN1S(=O)(=O)c1cccc2nsnc12 (stereo not shown) [AVI-2]
- Occupancy difference (refined_occupancy - 2*(1-BDC)): 10
- PanDDA run, DMSO background map: 1-BDC [18]: 0.2
- PanDDA run, DMSO background map: Hit [19]: TRUE
- PanDDA run, DMSO background map: Modeled [19]: TRUE
- 1-BDC [1]: 0.2
- X-ray crystal structure [6]: TRUE
- Hit (PanDDA run, DMSO background map) [7]: TRUE
- 1-BDC (PanDDA run, DMSO background map) [8]: 0.22
- Hit (PanDDA run, overall) [9]: TRUE
- Modeling comment (PanDDA run, overall) [9]: Duplicate, not modeled
- PanDDA run, overall: Modeled [20]: TRUE
- PanDDA run, overall: Hit [21]: TRUE
- Total number of conformations: 1
- 2*(1-BDC) (%): 40%
- Refined ligand occupancy (%) [5]: 50%
- Binding site [10]: Adenosine

Structure (SMILES): Cc1sc2ncnc(Sc3ccccc3C(=O)O)c2c1C [AVI-317]
- Occupancy difference (refined_occupancy - 2*(1-BDC)): 30
- 1-BDC [1]: 0.15
- X-ray crystal structure [6]: TRUE
- Total number of conformations: 2
- 2*(1-BDC) (%): 30%
- Refined ligand occupancy (%) [5]: 60%
- Binding site [10]: Adenosine
- PanDDA run, DMSO background map: 1-BDC [11]: 0.17 and 0.15
- PanDDA run, DMSO background map: Hit [11]: TRUE
- PanDDA run, DMSO background map: Modeled [11]: TRUE
- PanDDA run, overall: Hit [12]: TRUE
- PanDDA run, overall: Modeled [12]: TRUE
- PanDDA run, overall: Modeling comment [12]: Duplicate, not modeled

Structure (SMILES): CC1(C)CCC(CO)N(c2ncnc3[nH]ccc23)C1 (stereo not shown) [AVI-3726]
- Occupancy difference (refined_occupancy - 2*(1-BDC)): 0
- 1-BDC [1]: 0.17
- PanDDA run, overall: Hit [13]: TRUE
- PanDDA run, DMSO background map: 1-BDC [14]: 0.17
- PanDDA run, DMSO background map: Hit [14]: TRUE
- Total number of conformations: 3
- X-ray crystal structure [15]: TRUE
- 2*(1-BDC) (%): 34%
- Refined ligand occupancy (%) [5]: 34%
- Binding site [16]: Adenosine

Structure (SMILES): Cc1c[nH]c2ncnc(NCC3(O)CCC(O)CC3)c12 (stereo not shown) [AVI-4329]
- 1-BDC (PanDDA background density correction, 1-BDC): 0.09
- Hit (PanDDA run, DMSO background map) [22]: TRUE
- Modeled (PanDDA run, DMSO background map) [22]: TRUE
- 1-BDC (PanDDA run, DMSO background map) (crystal soak concentration 10 mM, DMSO background map, event 1): 0.09 and 0.11
- Hit (PanDDA run, overall) [23]: TRUE
- Modeled (PanDDA run, overall) [23]: TRUE
- Modeling comment (PanDDA run, overall) [23]: Duplicate, not modeled
- Refined ligand occupancy (%) (crystallographic refinement): 30%
- X-ray crystal structure [15]: TRUE
- 2*(1-BDC) (%): 18%
- Binding site [16]: Adenosine

Structure (SMILES): CC1CC(C(=O)O)CCN1C(=O)c1ccc2c(c1)OCC(=O)N2 (stereo not shown) [AVI-303]
- Occupancy difference (refined_occupancy - 2*(1-BDC)): 0
- PanDDA run, DMSO background map: 1-BDC [18]: 0.13
- PanDDA run, DMSO background map: Hit [19]: TRUE
- PanDDA run, DMSO background map: Modeled [19]: TRUE
- 1-BDC [1]: 0.13
- X-ray crystal structure [6]: TRUE
- Hit (PanDDA run, DMSO background map) [7]: TRUE
- 1-BDC (PanDDA run, DMSO background map) [8]: 0.19
- Hit (PanDDA run, overall) [9]: TRUE
- Modeling comment (PanDDA run, overall) [9]: Duplicate, not modeled
- PanDDA run, overall: Modeled [20]: TRUE
- PanDDA run, overall: Hit [21]: TRUE
- Total number of conformations: 1
- 2*(1-BDC) (%): 26%
- Refined ligand occupancy (%) [5]: 26%
- Binding site [10]: Adenosine

Structure (SMILES): O[C@H]1COC[C@@H]1Nc1ncnc2[nH]ccc12 [AVI-1444, (3R,4S)-4-((7H-pyrrolo[2,3-d]pyrimidin-4-yl)amino)tetrahydrofuran-3-ol]
- Occupancy difference (refined_occupancy - 2*(1-BDC)): 0
- 1-BDC [1]: 0.08
- X-ray crystal structure [2]: TRUE
- PanDDA run, overall: Hit [13]: TRUE
- PanDDA run, DMSO background map: 1-BDC [14]: 0.08 and 0.11
- PanDDA run, DMSO background map: Hit [14]: TRUE
- Total number of conformations: 1
- 2*(1-BDC) (%): 16%
- Refined ligand occupancy (%) [5]: 16%
- Binding site [17]: Adenosine

Structure (SMILES): CC(C)CCC(CO)Nc1ncnc2[nH]ccc12.O=C(O)C(F)(F)F (stereo not shown) [AVI-3668]
- PanDDA run, overall: Hit [13]: TRUE
- PanDDA run, overall: Modeling comment [13]: Weak density, not modeled
- PanDDA run, DMSO background map: 1-BDC [14]: 0.15
- PanDDA run, DMSO background map: Hit [14]: TRUE
- PanDDA run, TFA/DMSO background map: 1-BDC (crystal soak 10 mM): 0.09
- PanDDA run, TFA/DMSO background map: Hit (crystal soak 10 mM): TRUE
